Data on 42 compounds can be found in US9296748B2, “Pyridinones” (Boehringer Ingelheim International GmbH, priority 2013, dated 2016).

This assay has as its target BRD4-BD1 (Homo sapiens (Human), UniProt O60885). Description: BRD4-H4 Tetraacetylated Peptide Inhibition AlphaScreen. The assay is classed as binding. To be noted: GST-BRD4-BD1 (aa 44-168), biotinylated Acetyl-Histone H4 peptide. The procedure: Compounds are diluted in serial dilution 1:5 in assay buffer from 10 mM stock in DMSO (100 μM start concentration) in white OptiPlate-384 (PerkinElmer). […] Subsequently, 6 μl of premixed AlphaLISA Glutathione Acceptor Beads and AlphaScreen Streptavidin Donor Beads from PerkinElmer (in assay buffer at a concentration of 10 μg/ml each) are added and the samples are incubated for 30 min at RT in the dark (shaking 300 rpm). Afterwards, the signal is measured in a PerkinElmer Envision HTS Multilabel Reader using the AlphaScreen protocol from PerkinElmer. […] Negative control values are entered as low basis value when using the software GraphPad Prism for calculations. Furthermore, a positive control (probe molecule JQ1+ with protein/peptide mix) is pipetted. Determination of IC50 values are carried out using GraphPad Prism 3.03 software (or updates thereof).
For orientation: Bead proximity is the source of the signal in Alpha formats.
The IC50 is the concentration that gives 50% inhibition. Lower therefore signals greater potency. Compound `Cc1cc(-c2nc3ccc(C4CN(C)CCO4)cc3n2[C@@H](C)c2ccccc2)nn(C)c1=O` (stereo partly drawn) [Example I-33] showed an IC50 of 47 nM.
`Cc1cc(-c2nc3cnc(C4CCOCC4)cc3n2[C@@H](C)c2ccccc2)nn(C)c1=O` [II-25]: the IC50 was 8 nM.
Then `Cc1c(-c2nc3cnc(N4CCN(C)CC4)cc3n2Cc2ccccc2)cn(C)c(=O)c1C` [II-41], with 1200 nM; and `Cc1cc(-c2nc3cccnc3n2Cc2ccccc2)cn(C)c1=O` [III-3], with 45 nM.
Then `COC[C@H](C)n1c(-c2cc(C)c(=O)n(C)c2)nc2ccc(N)cc21` [Example I-32], with 268 nM.
Under `Cn1cc(-c2nc3ccc(N4CCOCC4)cc3n2Cc2ccccc2)cc(N)c1=O` [Example V-4] stands 133 nM; under `CN1CCN(c2ccc3nc(-c4ccc(=O)n(C)n4)n(Cc4ccccc4)c3c2)CC1` [Example I-16], 192 nM.
As for `CNc1cc(-c2nc3ccccc3n2Cc2ccccc2)cn(C)c1=O` [VI-1, 5-(1-benzyl-1H-1,3-benzodiazol-2-yl)-1-methyl-3-(methylamino)-1,2-dihydropyridin-2-one], the IC50 is 136 nM.
Then `COC[C@H](C)n1c(-c2cc(C)c(=O)n(C)c2)nc2cnc(N3CCOC[C@@H]3C)cc21` [II-11], with 102 nM.
Compound `Cc1cc(-c2nc3cccc(C)c3n2Cc2ccccn2)cn(C)c1=O` [IV-10] had an IC50 of 109 nM.
With `Cc1cc(-c2nc3cnccc3n2Cc2ccc(F)c(F)c2)cn(C)c1=O` [II-27], the IC50 was found to be 166 nM.
Consider `Cc1cc(-c2nc3ccc(C4(C(F)(F)F)CC4)cc3n2Cc2ccccn2)cn(C)c1=O` [Example I-30], for which the concentration for half-maximal inhibition (IC50) was 63 nM.
Under `Cc1cc(-c2nc3ccc(OC(C)C)nc3n2[C@@H](C)c2ccccn2)nn(C)c1=O` [III-4] stands 118 nM; under `Cc1cc(-c2nc3cnc(C4CCOCC4)cc3n2[C@@H](C)c2ccccc2)cn(C)c1=O` [II-26], 16 nM; under `Cc1cc(-c2nc3cnc(N4CCOC[C@@H]4C)nc3n2[C@@H](C)c2ccccc2)cn(C)c1=O` [IV-11], 12 nM.
For the compound `Cc1cc(-c2nc3ccncc3n2Cc2ccccc2)cn(C)c1=O` [IV-4], the IC50 turned out to be 60 nM.
Then `Cc1cc(-c2nc3cnc(N4CCOC[C@@H]4C)cc3n2[C@@H](C)c2ccccc2)cn(C)c1=O` [II-31], with 40 nM; and `Cc1cc(-c2nc3ccc(OC(C)C)nc3n2C(C)c2ccccn2)cn(C)c1=O` (stereo not drawn) [III-7], with 220 nM.
Then `Cn1cc(-c2nc3ccccc3n2Cc2ccccc2)ccc1=O` [Example I-2], with 1540 nM; and `Cc1cnc2c(c1)nc(-c1cc(C)c(=O)n(C)c1)n2Cc1ccccc1` [IV-8], with 70 nM; and `CN1CCN(c2ccc3nc(-c4cn(C)c(=O)cn4)n(Cc4ccccc4)c3c2)CC1` [Example I-20], with 121 nM.
Then `Cn1cc(-c2nc3ccccc3n2Cc2ccccc2)cc(N)c1=O` [Example V-2, 3-amino-5-(1-benzyl-1H-benzoimidazol-2-yl)-1-methyl-1H-pyridin-2-one], with 1350 nM.
Take `Cc1nc(-c2nc3cnc(N4CCOCC4)cc3n2Cc2ccccc2)cn(C)c1=O` [II-12]: the IC50 was 49 nM.
For `Cc1cc(-c2nc3ccc(F)cc3n2Cc2ccccc2)cn(C)c1=O` [Example I-12, 5-(1-Benzyl-6-fluoro-1H-benzoimidazol-2-yl)-1,3-dimethyl-1H-pyridin-2-one], half-maximal inhibition (IC50) was put at 18 nM.
Then `Cc1cc(-c2nc3ccc(C4CCOCC4)cc3n2[C@@H](C)c2ccccn2)cn(C)c1=O` [Example I-27], with 103 nM; and `Cc1cc(-c2nc3cnc(Cl)cc3n2Cc2ccccc2)cn(C)c1=O` [II-7, 5-(1-Benzyl-6-chloro-1H-imidazo[4,5-c]pyridin-2-yl)-1,3-dimethyl-1H-pyridin-2-one], with 175 nM.
Under `Cc1cc(-c2nc3ccc(C#N)cc3n2Cc2ccccc2)cn(C)c1=O` [Example I-23] stands 190 nM.
Then `Cc1cc(-c2nc3ccc(C(C)C)cc3n2[C@@H](C)c2ccccn2)cn(C)c1=O` [Example I-29], with 180 nM; and `Cc1cc(-c2nc3cnc(N)cc3n2Cc2ccccc2)cn(C)c1=O` [II-16, 5-(6-Amino-1-benzyl-1H-imidazo[4,5-c]pyridin-2-yl)-1,3-dimethyl-1H-pyridin-2-one], with 68 nM; and `Cc1cc(-c2nc3ccc(C(=O)N(C)C)cc3n2Cc2ccccc2)cn(C)c1=O` [Example I-24], with 128 nM.
For `Cc1cc(-c2nc3ccc(N)cc3n2Cc2ccccc2)cn(C)c1=O` [Example I-9, 5-(6-Amino-1-benzyl-1H-benzoimidazol-2-yl)-1,3-dimethyl-1H-pyridin-2-one], 58 nM corresponded to half-maximal inhibition (IC50). Against the preceding compound, the IC50 is about 2.2-fold lower.
`Cc1cc(-c2nc3cnc(N4CCOC[C@@H]4C)cc3n2C(C)CC2CC2)cn(C)c1=O` (stereo partly drawn) [II-43] displayed a half-maximal inhibitory concentration (IC50) of 50 nM. This IC50 and that of the compound before are within 1.5-fold of each other.
For the compound `CC1CC(=O)NN=C1c1ccc2c(c1)nc(-c1ccc(=O)n(C)c1)n2Cc1ccccc1` (stereo not drawn) [IV-2], the IC50 is 218 nM.
Under `Cn1nc(-c2nc3ccccc3n2Cc2ccccc2)ccc1=O` [Example I-15] stands 1380 nM.
Consider `Cn1cc(-c2nc3cccnc3n2Cc2ccccc2)ccc1=O` [III-2], for which the IC50 stood at 1780 nM.
Under `Cc1cc(-c2nc3ccc(C4(C(F)(F)F)CC4)cc3n2[C@@H](C)c2ccccc2)cn(C)c1=O` [Example I-37] stands 103 nM; under `Cc1cc(-c2nc3ccc(N4CCN(C)CC4)cc3n2Cc2ccccc2)cn(C)c1=O` [Example I-1, 5-[1-Benzyl-6-(4-methylpiperazin-1-yl)-1H-1,3-benzodiazol-2-yl]-1,3-dimethyl-1,2-dihydropyridin-2-one], 12 nM.
Under `Cc1cc(-c2nc3cc(N4CCOCC4)cnc3n2Cc2ccccc2)cn(C)c1=O` [IV-5] stands 32 nM; under `Cc1cc(-c2nc3ccc(N4CCOCC4)cc3n2Cc2ccccc2)c[nH]c1=O` [Example I-3], 109 nM.
Then `Cc1cc(-c2nc3ccc(C4CCOCC4)cc3n2Cc2ccccn2)cn(C)c1=O` [Example I-25], with 72 nM; and `CCn1cc(-c2nc3cnc(N4CCOCC4)cc3n2Cc2ccccc2)cc(C)c1=O` [II-6], with 163 nM; and `Cc1cc(-c2nc3cnc(N4CCOCC4)cc3n2Cc2ccncc2)cn(C)c1=O` [II-14], with 63 nM.
